Results as given in patent publication US9296720B2, “Carboxamide-substituted heteroaryl-pyrazoles and the use thereof” (AiCuris GmbH & Co. KG, priority 2011, dated 2016).
Like-named read-outs stand apart in the source and are kept apart here.

What was measured:
Type in all cases: cell-based
HIV-1NL4-3 K103N-Y181C = assay: Luminescence reduction assay, MT4 cells infected with HIV-1NL4-3 luciferase reporter virus, RT mutant K103N-Y181C
Description: (§1) For this assay, HIV-1NL4-3 reporter viruses are used, which carry the luciferase164 gene (lu164) instead of the nef gene. The viruses are generated by transfection of 293T cells with the corresponding proviral pNL4-3 plasmid (Lipofectamine Reagent, Invitrogen, Karlsruhe, Germany). Starting from the proviral plasmid-DNA, viruses with defined resistance mutations in the reverse transcriptase gene are produced with the “QuikChange II XL Site-Directed Mutagenesis Kit” (Stratagene, Cedar Creek, Tex., USA). Among other things, the following mutations are generated: A98G, A98G-K103N-V108I, A98S, F227C, F227L, G190A, G190S, K101E, K101Q-K103N, K103N, K103N-F227L, K103N-G190A, K103N-G190S, K103N-M230L, K103N-N348I, K103N-P225H, K103N-V108I, K103N-V108I-P225H, K103N-V179F-Y181C, K103N-Y181C, K103N-Y181C-G190A, L100I, L100I-K103N, L100I-K103N-V179I-Y181C, L100I-K103N-Y181C, L234I, N348I, P225H, P236L, V106A, V106A-E138K, V106A-F227C, V106A-F227L, V106I, V106I-Y188L, V106M, V108I, V179F-Y181C, V179I, V179I-Y181C, Y181C, Y181C-G190A, Y181C-M230L, Y181I, Y188L. MT4 cells infected with these reporter viruses (NIH AIDS Research and Reference Reagent Program) secrete luciferase into the medium, which makes possible the luminometric quantification of the virus replication.
(§2) For the batch of a 96-well MTP, 3 million MT4 cells are pelletized, suspended in 1 ml of RPMI 1640 medium without phenol red (Invitrogen, Karlsruhe, Germany)/10% FCS/2 mmol of L-glutamine/1% Pen/Strep (Invitrogen, Karlsruhe, Germany), and incubated together with a suitable amount of the corresponding HIV-1NL4-3 reporter virus for 2 hours at 37° C. (pellet infection). Non-adsorbed viruses are then washed out with PBS, the infected cells are pelletized again, and suspended in 8 ml of RPM 11640 medium without phenol red/2% or 10% FCS/2 mmol of L-glutamine/1% Pen/Strep. Therefrom, 80 μl per well is pipetted into a white 96-well MTP in 20 μl of test substance in a suitable dilution. In order to avoid boundary effects, the edge wells of the MTP are not used for substance dilutions. The second vertical row of the MTP contains only infected cells (virus control), and the eleventh vertical row contains only non-infected cells (cell control) in each case in RPMI 1640 medium without phenol red/2% or 10% FCS/2 mmol of L-glutamine/1% Pen/Strep. The other wells of the MTP contain the compounds according to the invention in different concentrations starting from the third vertical row, from which dilution of the test substances is carried out 3^7 times in three steps up to the tenth vertical row. The test substances are dissolved in DMSO, whereby the DMSO final concentration in the test batch is ultimately 1%. The test batches are incubated for 5 days at 37° C./5% CO2, and are luminometrically evaluated after the addition of 15 μl of Lu164-buffer (65 mmol of NaCl, 300 mmol of MES, pH 5.8, 5 mmol of glutathione and 1:200 coelenterazine (5 mg/ml in 30 μM of glutathione/DMSO) (P.J.K. GmbH, Kleinblittersdorf, Germany)). In the virus control, the resulting values are in the range of 1 million RLUs (relative light units), and in the cell control, the resulting values are 300 to 400 RLUs. The EC50 values of the test substances are determined as the concentration of the treated infected cells, in which the virus replication measured in RLUs is 50% of the untreated infected cells.

HIV-1NL4-3 Wild Type = assay: Luminescence reduction assay, MT4 cells infected with HIV-1NL4-3 luciferase reporter virus, wild type; conditions: 2% FCS
Description: as §1, §2

HIV-1LAI Wild Type = assay: AlamarBlue viability assay, HIV-1LAI-infected MT4 cells; conditions: 10% FCS
Experimental: For the batch of a 96-well MTP, 3 million PBLs are pelletized, suspended in 1 ml of RPMI 1640 medium/10% FCS/2 mmol of L-glutamine/1% Pen/Strep, and incubated together with a suitable amount of HIV-1LA1 (NIH AIDS Research & Reference Reagent Program, Germantown, USA) for 2 hours at 37° C. (pellet infection). Non-adsorbed viruses are then washed out with PBS, the infected cells are pelletized again, and suspended in 18 ml of RPMI 1640 medium/10% FCS/2 mmol of L-glutamine/1% Pen/Strep/interleukin-2 (40 U/ml). Therefrom, 180 μl per well is pipetted into a white 96-well MTP in 20 μl of test substance in a suitable dilution. As an alternative, after preparation of the substance dilutions, the HIV is added by pipetting in the MTP together with the cells and is no longer washed out (supernatant infection). In order to avoid boundary effects, the edge wells of the MTP are not used for substance dilutions. The second vertical row of the MTP contains only infected cells (virus control), and the eleventh vertical row contains only non-infected cells (cell control) in each case in RPMI 1640 medium/10% FCS/2 mmol of L-glutamine/1% Pen/Strep/interleukin-2 (40 U/ml). The other wells of the MTP contain the compounds according to the invention in different concentrations starting from the third vertical row, from which dilution of the test substances is carried out 3^7 times in three steps up to the tenth vertical row. The test substances are dissolved in DMSO, whereby the DMSO final concentration in the test batch is ultimately 1%. The test batches are incubated at 37° C./5% CO2. After 5 and 7 days, in each case 50 μl of cell-free supernatant is drawn off from each well in order to determine the amount of p24 contained by means of p24 ELISA (HIV-1 p24^CA Antigen Capture Assay Kit, NCI-Frederick Cancer Research and Development Center, Frederick, USA). From the resulting values of the photometric analysis (450/620 nm), the EC50 values of the test substances are determined as the concentration of the treated infected cells, in which the amount of p24 is 50% of the untreated infected cells.
As an alternative, MT4 cells are used for testing test substances instead of PBLs. HIV-1LA1-infected MT4 cells (MOI 0.01, supernatant infection) are incubated according to the above-described pattern in RPMI 1640 medium with 2% or 10% FCS/2 mmol of L-glutamine/1% Pen/Strep in the presence of test substances for 5 days at 37° C./5% CO2 (20 μl of substance dilution and 80 μl of cells/virus per well). Then, 10 μl of AlamarBlue (Invitrogen, Karlsruhe, Germany) is added to each well, and MTPs are incubated for 3 hours at 37° C., before the fluorimetric analysis is done (544/590 nm). The resulting values are approximately 30,000 in the case of untreated, non-infected cells, and approximately 6,000 in the case of untreated infected cells. In the low concentration range, the EC50 values of the test substances are determined as the concentration of the treated infected cells, in which the fluorescence is 50% of the untreated non-infected cells (in each case relative to the values of the untreated infected cells). In addition, in the high concentration range, the CC50 values of the test substances are determined as the concentration of the treated infected cells, in which the fluorescence is 50% of the untreated, non-infected cells (in each case relative to the values of the untreated infected cells).

[1] = Human immunodeficiency virus 1, MT4, read-out: EC50 (μM) MT4 Cells HIV-1NL4-3 K103N-Y181C 2% FCS, MT4 cells, HIV-1NL4-3 K103N-Y181C, 2% FCS
[2] = Human immunodeficiency virus 1, MT4, MT4 cells

Structure (SMILES)	EC50 (HIV-1NL4-3 K103N-Y181C; [1])	EC50 (HIV-1NL4-3 Wild Type; [2])	EC50 (HIV-1LAI Wild Type; [2])	EC50 (HIV-1NL4-3 K103N-Y181C; read-out: EC50 (μM) MT4 Cells HIV-1NL4-3 K103N-Y181C 2% FCS, MT4 cells, HIV-1NL4-3 K103N-Y181C, 2% FCS)	EC50 (HIV-1NL4-3 Wild Type; MT4 cells)	EC50 (HIV-1LAI Wild Type; MT4 cells)
O=C1CN(C(=O)c2cc(-c3cc(Cl)cc(OC(F)(F)F)c3)n(-c3cccnc3)n2)CN1 [Example 76, 1-({5-[3-Chloro-5-(trifluoromethoxy)phenyl]-1-(pyridin-3-yl)-1H-pyrazol-3-yl}carbonyl)imidazolidin-4-one]	0.019 µM	0.014 µM	0.207 µM	–	–	–
COc1cc(-n2nc(C(=O)N3CNC(=O)C3)cc2-c2cc(Br)cc(OC(F)(F)F)c2)ccn1 [Example 55, 1-({5-[3-Bromo-5-(trifluoromethoxy)phenyl]-1-(2-methoxypyridin-4-yl)-1H-pyrazol-3-yl}carbonyl)imidazolidin-4-one]	0.01 µM	0.003 µM	0.104 µM	–	–	–
O=C(c1cc(-c2cc(Br)cc(OC(F)(F)F)c2)n(-c2ccc(Cl)nc2)n1)N1CC[S+]([O-])C1 (racemic) [Example 37, {5-[3-Bromo-5-(trifluoromethoxy)phenyl]-1-(6-chloropyridin-3-yl)-1H-pyrazol-3-yl}(1-oxido-1,3-thiazolidin-3-yl)methanone]	0.005 µM	0.004 µM	2.32 µM	–	–	–
O=C(c1cc(-c2cc(Br)cc(OC(F)(F)F)c2)n(-c2cccnc2)n1)N1CC[S+]([O-])C1 (racemic) [Example 31-1, {5-[3-Bromo-5-(trifluoromethoxy)phenyl]-1-(pyridin-3-yl)-1H-pyrazol-3-yl}(1-oxido-1,3-thiazolidin-3-yl)methanone]	–	–	–	0.981 µM	0.084 µM	0.82 µM
O=C1CN(C(=O)c2cc(-c3cc(F)cc(OC(F)(F)F)c3)n(-c3ccnc(Cl)c3)n2)CCN1 [Example 63, 4-({-(2-Chloropyridin-4-yl)-5-[3-fluoro-5-(trifluoromethoxy)phenyl]-1H-pyrazol-3-yl}carbonyl)piperazin-2-one]	0.892 µM	0.354 µM	2.08 µM	–	–	–
O=C(c1cc(-c2cc(Br)cc(OC(F)(F)F)c2)n(-c2ccc[n+]([O-])c2)n1)N1CCS(=O)(=O)C1 [Example 33, {5-[3-Bromo-5-(trifluoromethoxy)phenyl]-1-(1-oxidopyridin-3-yl)-1H-pyrazol-3-yl}(1,1-dioxido-1,3-thiazolidin-3-yl)methanone]	0.299 µM	0.069 µM	1.02 µM	–	–	–
O=C1CN(C(=O)c2cc(-c3cc(F)cc(Cl)c3)n(-c3cccc(Cl)n3)n2)CN1 [Example 2, 1-{[5-(3-Chloro-5-fluorophenyl)-1-(6-chloropyridin-2-yl)-1H-pyrazol-3-yl]carbonyl}imidazolidin-4-one]	> 3.3 µM	0.272 µM	> 3.3 µM	–	–	–
O=C1CN(C(=O)c2cc(-c3cncc(C(F)(F)F)c3)n(-c3cccc(Cl)c3)n2)CCN1 [Example 109, 4-({1-(3-Chlorophenyl)-5-[5-(trifluoromethyl)pyridin-3-yl]-1H-pyrazol-3-yl}carbonyl)piperazin-2-one]	0.768 µM	0.232 µM	0.246 µM	–	–	–
O=C1CN(C(=O)c2cc(-c3cc(F)cc(Br)c3)n(-c3cccnc3)n2)CCN1 [Example 91, 4-{[5-(3-Bromo-5-fluorophenyl)-1-(pyridin-3-yl)-1H-pyrazol-3-yl]carbonyl}piperazin-2-one]	0.392 µM	0.006 µM	0.055 µM	–	–	–
O=C1CN(C(=O)c2cc(-c3ccnc(Cl)c3)n(-c3cccc(Cl)c3)n2)CCN1 [Example 115, 4-{[1-(3-Chlorophenyl)-5-(2-chloropyridin-4-yl)-1H-pyrazol-3-yl]carbonyl}piperazin-2-one]	1.09 µM	0.027 µM	0.352 µM	–	–	–
O=C1CN(C(=O)c2cc(-c3cncc(C(F)(F)F)c3)n(-c3ccc(F)c(Cl)c3)n2)CN1 [Example 106, 1-({1-(3-Chloro-4-fluorophenyl)-5-[5-(trifluoromethyl)pyridin-3-yl]-1H-pyrazol-3-yl}carbonyl)imidazolidin-4-one]	0.12 µM	0.082 µM	0.084 µM	–	–	–
Nc1ccc(-n2nc(C(=O)N3CNC(=O)C3)cc2-c2cc(F)cc(Cl)c2)cn1 [Example 12, 1-{[1-(6-Aminopyridin-3-yl)-5-(3-chloro-5-fluorophenyl)-1H-pyrazol-3-yl]carbonyl}imidazolidin-4-one]	0.377 µM	0.189 µM	1.79 µM	–	–	–
O=C1CN(C(=O)c2cc(-c3cc(F)cc(OC(F)F)c3)n(-c3ccnc(Cl)c3)n2)CCN1 [Example 69, 4-({1-(2-Chloropyridin-4-yl)-5-[3-(difluoromethoxy)-5-fluorophenyl]-1H-pyrazol-3-yl}carbonyl)piperazin-2-one]	1.14 µM	0.32 µM	1.98 µM	–	–	–
